Activity calls are given as the source filed them. No rule for the calls is given here.
System: CCRIS mutagenicity, Ames/micronucleus/aberration tests
Assay: CCRIS mutagenicity studies
[1] = Test System: AMES SALMONELLA TYPHIMURIUM, Strain/Indicator: TA98, Metabolic Activation: NONE, Method: PREINCUBATION
[2] = Test System: AMES SALMONELLA TYPHIMURIUM, Strain/Indicator: TA100, Metabolic Activation: NONE, Method: PREINCUBATION

Measured: mutagenic call

CC(=O)OC/N=[N+](/C)[O-]
active: Test System: AMES SALMONELLA TYPHIMURIUM, Strain/Indicator: G46, Metabolic Activation: NONE, Method: PREINCUBATION active; positive | Test System: AMES SALMONELLA TYPHIMURIUM, Strain/Indicator: TA1535, Metabolic Activation: NONE, Method: STANDARD PLATE active; positive | Test System: CHINESE HAMSTER V-79, Strain/Indicator: V-79/OUABAIN, Metabolic Activation: NONE, Method: STANDARD PLATE active; positive | Test System: MOUSE LYMPHOMA, Strain/Indicator: L5178Y (TK+/TK-), Metabolic Activation: NONE, Method: SUSPENSION/PLATE active; positive | Test System: MOUSE LYMPHOMA, Strain/Indicator: L5178Y (TK+/TK-), Metabolic Activation: RAT, LIVER, S-9, AROCLOR 1254, Method: SUSPENSION/PLATE active; positive
inactive: Test System: E. COLI, Strain/Indicator: WP2 UVRA, Metabolic Activation: HAMSTER, LIVER, S-9, AROCLOR 1254, Method: PREINCUBATION inactive; negative | Test System: E. COLI, Strain/Indicator: WP2 UVRA, Metabolic Activation: HAMSTER, LIVER, S-9, AROCLOR 1254, Method: STANDARD PLATE inactive; negative | Test System: E. COLI, Strain/Indicator: WP2 UVRA, Metabolic Activation: HAMSTER, LIVER, S-9, Method: PREINCUBATION inactive; negative | Test System: E. COLI, Strain/Indicator: WP2 UVRA, Metabolic Activation: HAMSTER, LIVER, S-9, Method: STANDARD PLATE inactive; negative | Test System: E. COLI, Strain/Indicator: WP2 UVRA, Metabolic Activation: MOUSE, LIVER, S-9, AROCLOR 1254, Method: PREINCUBATION inactive; negative | Test System: E. COLI, Strain/Indicator: WP2 UVRA, Metabolic Activation: MOUSE, LIVER, S-9, AROCLOR 1254, Method: STANDARD PLATE inactive; negative | Test System: E. COLI, Strain/Indicator: WP2 UVRA, Metabolic Activation: MOUSE, LIVER, S-9, Method: PREINCUBATION inactive; negative | Test System: E. COLI, Strain/Indicator: WP2 UVRA, Metabolic Activation: MOUSE, LIVER, S-9, Method: STANDARD PLATE inactive; negative | Test System: E. COLI, Strain/Indicator: WP2 UVRA, Metabolic Activation: NONE, Method: PREINCUBATION inactive; negative | Test System: E. COLI, Strain/Indicator: WP2 UVRA, Metabolic Activation: NONE, Method: STANDARD PLATE inactive; negative | Test System: E. COLI, Strain/Indicator: WP2 UVRA, Metabolic Activation: RAT, LIVER, S-9, AROCLOR 1254, Method: PREINCUBATION inactive; negative | Test System: E. COLI, Strain/Indicator: WP2 UVRA, Metabolic Activation: RAT, LIVER, S-9, AROCLOR 1254, Method: STANDARD PLATE inactive; negative | Test System: E. COLI, Strain/Indicator: WP2 UVRA, Metabolic Activation: RAT, LIVER, S-9, Method: PREINCUBATION inactive; negative | Test System: E. COLI, Strain/Indicator: WP2 UVRA, Metabolic Activation: RAT, LIVER, S-9, Method: STANDARD PLATE inactive; negative

CCCCCCCCCCCCCCCc1cccc(O)c1C(=O)O
inactive: End Point: In vivo micronucleus, Test System: Peripheral blood erythrocytes, Species: Mouse, Strain/Sex: CD-1, Route: Oral inactive; negative

CSc1nc2cc(Oc3cccc(Cl)c3Cl)c(Cl)cc2[nH]1
active: End Point: IN VITRO CHROMOSOMAL ABERRATIONS, Test System: RIVER BUFFALO LYMPHOCYTES, Metabolic Activation: NONE active; positive (structural and ploidy changes) | End Point: IN VITRO MICRONUCLEUS, Test System: RIVER BUFFALO LYMPHOCYTES, Metabolic Activation: NONE active; positive

Oc1cc(Cl)c(Cl)c(Cl)c1Cl
inactive: End Point: IN VITRO CHROMOSOMAL ABERRATIONS, Test System: CHINESE HAMSTER LUNG CELLS (CHL), Metabolic Activation: NONE inactive; negative | End Point: IN VITRO CHROMOSOMAL ABERRATIONS, Test System: CHINESE HAMSTER OVARY CELLS (CHO), Metabolic Activation: NONE inactive; negative | Test System: AMES SALMONELLA TYPHIMURIUM, Strain/Indicator: TA97, Metabolic Activation: HAMSTER, LIVER, S-9, AROCLOR 1254 (10 OR 30%), Method: PREINCUBATION inactive; negative | Test System: AMES SALMONELLA TYPHIMURIUM, Strain/Indicator: TA97, Metabolic Activation: NONE, Method: PREINCUBATION inactive; negative | Test System: AMES SALMONELLA TYPHIMURIUM, Strain/Indicator: TA97, Metabolic Activation: RAT, LIVER, S-9, AROCLOR 1254 (10 OR 30%), Method: PREINCUBATION inactive; negative | Test System: AMES SALMONELLA TYPHIMURIUM, Strain/Indicator: TA98, Metabolic Activation: HAMSTER, LIVER, S-9, AROCLOR 1254 (10 OR 30%), Method: PREINCUBATION inactive; negative | [1] inactive; negative | Test System: AMES SALMONELLA TYPHIMURIUM, Strain/Indicator: TA98, Metabolic Activation: RAT, LIVER, S-9, AROCLOR 1254 (10 OR 30%), Method: PREINCUBATION inactive; negative | Test System: AMES SALMONELLA TYPHIMURIUM, Strain/Indicator: TA100, Metabolic Activation: HAMSTER, LIVER, S-9, AROCLOR 1254 (10 OR 30%), Method: PREINCUBATION inactive; negative | [2] inactive; negative | Test System: AMES SALMONELLA TYPHIMURIUM, Strain/Indicator: TA100, Metabolic Activation: RAT, LIVER, S-9, AROCLOR 1254 (10 OR 30%), Method: PREINCUBATION inactive; negative | Test System: AMES SALMONELLA TYPHIMURIUM, Strain/Indicator: TA1535, Metabolic Activation: HAMSTER, LIVER, S-9, AROCLOR 1254 (10 OR 30%), Method: PREINCUBATION inactive; negative | Test System: AMES SALMONELLA TYPHIMURIUM, Strain/Indicator: TA1535, Metabolic Activation: NONE, Method: PREINCUBATION inactive; negative | Test System: AMES SALMONELLA TYPHIMURIUM, Strain/Indicator: TA1535, Metabolic Activation: RAT, LIVER, S-9, AROCLOR 1254 (10 OR 30%), Method: PREINCUBATION inactive; negative
active: End Point: IN VITRO CHROMOSOMAL ABERRATIONS, Test System: CHINESE HAMSTER LUNG CELLS (CHL), Metabolic Activation: RAT, LIVER, S-9, KC-400 active; positive (structural changes) | End Point: IN VITRO CHROMOSOMAL ABERRATIONS, Test System: CHINESE HAMSTER OVARY CELLS (CHO), Metabolic Activation: RAT, LIVER, S-9, AROCLOR 1254 active; positive (structural changes)

CC1C=CC(=O)O1 (centres undefined)
inactive: [1] inactive; negative | Test System: AMES SALMONELLA TYPHIMURIUM, Strain/Indicator: TA98, Metabolic Activation: RAT, LIVER, S-9, AROCLOR 1254, Method: PREINCUBATION inactive; negative | [2] inactive; negative | Test System: AMES SALMONELLA TYPHIMURIUM, Strain/Indicator: TA100, Metabolic Activation: RAT, LIVER, S-9, AROCLOR 1254, Method: PREINCUBATION inactive; negative | Test System: AMES SALMONELLA TYPHIMURIUM, Strain/Indicator: TA102, Metabolic Activation: NONE, Method: PREINCUBATION inactive; negative | Test System: AMES SALMONELLA TYPHIMURIUM, Strain/Indicator: TA102, Metabolic Activation: RAT, LIVER, S-9, AROCLOR 1254, Method: PREINCUBATION inactive; negative

Reference: PubChem BioAssay AID1259407 (Chemical Carcinogenesis Research Information System (CCRIS), 2018)
